How the values were obtained:
Assay type in all cases: in vivo, Cavia porcellus
form-deprivation myopia = assay: Monocular form-deprivation (FD) myopia model, periocular injection; diopter by eccentric infrared photo-refractor, ocular axis parameters by A-mode ultrasound; details: guinea pig FD eyes, daily periocular injection, after 4 weeks
Protocol: (§1) The experimental animals used in this experiment were 3-week-old British shorthair three-colored guinea pigs (Cavia porcellus). Mask technique was used as a model of monocular form-deprivation (FD) myopia. In the myopic sclera HIF-1α expression experiment, the animals were randomly divided into three groups: the normal control group, FD 1 week group, and FD 1 week & 2-day recovery group. […] In the administration experiment, HIF-1α inhibitors salidroside and formononetin were administered to the form-deprived eyes by periocular injection to inhibit HIF-1α activity. The animals in the salidroside injection experiment were randomly divided into three groups: form-deprivation+solvent control group (FD+0.9% normal saline (NS)), form-deprivation+low concentration drug group (FD+SDS 1 μg), and form-deprivation+high concentration drug group (FD+SDS 10 μg). The animals in the formononetin injection experiment were randomly divided into three groups: form-deprivation+solvent control group (FD+DMSO), form-deprivation+low concentration drug group (FD+FMN 0.5 μg), and form-deprivation+high concentration drug group (FD+FMN 5 μg). Periocular injection of drugs was performed daily at 9 am for 4 weeks without treatment of the contralateral eyes. Before the experiment and after 2 weeks and 4 weeks of administration respectively, the diopter was measured with an eccentric infrared photo-refractor (EIR), and the ocular axis parameters such as vitreous chamber depth and ocular axis length were measured with amplitude-mode ultrasound (11 MHz). After the administration, the sclera was removed and the expression of HIF-1α and collagen type I were detected by Western Blot.

[1] = tested on: scleral hypoxia-inducible factor-1α (HIF-1α); assay: Western Blot of scleral HIF-1α after administration in form-deprived eyes; details: sclera removed after administration
Protocol: as §1, with “The animals in the formononetin injection experiment were randomly divided into three groups: form-deprivation+solvent control group (FD+DMSO), form-deprivation+low concentration drug group (FD+FMN 0.5 μg), and form-deprivation+high concentration drug group (FD+FMN 5 μg). Periocular injection of drugs was performed daily at 9 am for 4 weeks without treatment of the contralateral eyes.” left out

collagen type I = assay: Western Blot of scleral collagen type I after administration in form-deprived eyes; details: sclera removed after administration
Protocol: as §1, with “The animals in the formononetin injection experiment were randomly divided into three groups: form-deprivation+solvent control group (FD+DMSO), form-deprivation+low concentration drug group (FD+FMN 0.5 μg), and form-deprivation+high concentration drug group (FD+FMN 5 μg). Periocular injection of drugs was performed daily at 9 am for 4 weeks without treatment of the contralateral eyes.” left out

OC[C@H]1O[C@@H](OCCc2ccc(O)cc2)[C@H](O)[C@@H](O)[C@@H]1O [salidroside]
extension of ocular axis (ocular axis length difference) compared with solvent-injection group (form-deprivation myopia): relatively smaller | extension of vitreous chamber (vitreous chamber depth difference) compared with solvent-injection group (form-deprivation myopia): relatively smaller | myopia formation (diopter difference between experimental eyes and contralateral eyes) compared with form-deprivation solvent-injection group (form-deprivation myopia): significantly reduced | up-regulation of HIF-1α expression in the sclera of FDM eyes [1]: inhibited | down-regulation of collagen (type I) expression in the sclera of FDM eyes (collagen type I): inhibited
